Data published in PubChem BioAssay (NCI).
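Where inhibition never reached the appropriate level, the endpoint shown equals the highest concentration tested. Otherwise, values were interpolated linearly from a five-concentration, 48-hour dose response in 96-well plates. At the TGI there is no net growth.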

Experiments:
Assay in all cases: DTP human tumour cell line panel, 48 h
[1] = tested on: SN12C renal
[2] = tested on: MDA-MB-231 breast
[3] = tested on: OVCAR-5 ovarian
[4] = tested on: HCT-116 colon
[5] = tested on: A498 renal
[6] = tested on: UO-31 renal
[7] = tested on: U251 CNS
[8] = tested on: MCF7 breast
[9] = tested on: KM12 colon
[10] = tested on: OVCAR-8 ovarian
[11] = tested on: CAKI-1 renal
[12] = tested on: NCI-H522 lung
[13] = tested on: HOP-62 NSCLC
[14] = tested on: MALME-3M melanoma
[15] = tested on: A549 NSCLC
[16] = tested on: SR leukemia
[17] = tested on: SW-620 colon
[18] = tested on: HT29 colon
[19] = tested on: PC-3 prostate

Row | SMILES | TGI [1] [µM] | TGI [2] [µM] | TGI [3] [µM] | TGI [4] [µM] | TGI [5] [µM] | TGI [6] [µM] | TGI [7] [µM] | TGI [8] [µM] | TGI [9] [µM] | TGI [10] [µM] | TGI [11] [µM] | TGI [12] [µM] | TGI [13] [µM] | TGI [14] [µM] | TGI [15] [µM] | TGI [16] [µM] | TGI [17] [µM] | TGI [18] [µM] | TGI [19] [µM]
1 | Nc1cccc(OCc2nc(N)nc(N)c2-c2ccc(Cl)cc2)c1 | > 100 | > 100 | > 100 | > 100 | > 100 | > 100 | > 100 | > 100 | > 100 | > 100 | > 100 | > 100 | > 100 | > 100 | > 100 | > 100 | > 100 | > 100 | > 100
2 | O=C(O)c1ccccc1/C=N\NC1=NCCN1 | > 100 | > 100 | > 100 | > 100 | > 100 | > 100 | > 100 | > 100 | > 100 | > 100 | > 100 | > 100 | > 100 | > 100 | > 100 | > 100 | > 100 | > 100 | > 100
3 | Cc1cccc2c1C(=O)C(C1OC(=O)c3ccccc31)C2 (configuration not stated) | > 100 | > 100 | > 100 | > 100 | > 100 | > 100 | > 100 | > 100 | > 100 | > 100 | > 100 | > 100 | > 100 | > 100 | > 100 | > 100 | > 100 | > 100 | > 100
4 | CCCCCCCSCC(O)COC(c1ccccc1)(c1ccccc1)c1ccccc1 (configuration not stated) | > 100 | > 100 | > 100 | > 100 | > 100 | 27.8 | > 100 | > 100 | 16.9 | > 100 | > 100 | > 100 | > 100 | > 100 | > 100 | 85.4 | > 100 | 68.5 | > 100
5 | O=C(/C=C/c1ccc(O)c(O)c1)OCCOC(=O)/C=C/c1ccc(O)c(O)c1 | 65.1 | > 100 | 65.8 | 46.7 | > 100 | 47.5 | 59.2 | 90.9 | 41.8 | > 100 | > 100 | 46.9 | 47.4 | > 100 | > 100 | 58.9 | > 100 | 43.4 | 86.5
6 | COC(=O)CCCCC/C(=C\C(=O)C(Cl)(Cl)Cl)OC | > 100 | > 100 | > 100 | 49.6 | > 100 | > 100 | 90 | 58.5 | 95 | 73.6 | > 100 | 41.1 | > 100 | 65.2 | > 100 | 45.2 | 84.3 | 72.6 | 77.9
7 | Cc1cn(C2CC(N=[N+]=[N-])C(CO[Si](C)(C)C(C)(C)C)O2)c(=O)[nH]c1=O (configuration not stated) | 30.4 | 29.5 | 49.1 | 29.6 | 30.7 | 30.7 | 33 | 58 | 32.5 | 37.1 | 37.1 | 35.6 | 34.1 | 28.1 | 87.8 | 56.8 | 35.7 | 32.4 | 38.9
8 | Cn1c(=O)n(CC(Br)CBr)c(=O)n(CC(Br)CBr)c1=O (configuration not stated) | 67.3 | > 100 | > 100 | 79.3 | > 100 | 97.6 | > 100 | > 100 | > 100 | > 100 | > 100 | > 100 | > 100 | > 100 | > 100 | 37.4 | > 100 | 54.6 | > 100
9 | CC/C(Cl)=N\OC(=O)Nc1ccc(C#N)cc1 | 30.3 | 29.1 | 29.5 | 28.1 | 30.3 | 31 | 30.8 | 29.6 | 31.6 | 30.7 | 9.32 | 2.82 | 39.2 | 8.25 | 35.7 | 22.7 | 11.7 | 36.9 | 30.5
10 | CC(C)(C)OC(=O)NC(Cc1ccc([N+](=O)[O-])cc1)C(=O)NC(CCCCNC(=O)OCc1ccccc1)C(=O)ON1C(=O)CCC1=O (configuration not stated) | > 100 | > 100 | > 100 | > 100 | > 100 | > 100 | > 100 | > 100 | > 100 | > 100 | > 100 | > 100 | > 100 | > 100 | > 100 | > 100 | > 100 | > 100 | > 100
11 | CC(Cc1ccc(O)c(O)c1)C(C)Cc1ccc(O)c(O)c1 (configuration not stated) | > 51.6 | > 57 | 50.7 | 34.2 | 90.1 | 23.1 | 38.9 | 41.8 | 33.5 | 33.6 | 25.4 | 4.91 | 34.1 | 29.5 | > 88.4 | > 74.3 | 49.9 | 51.5 | > 79.6
12 | O/N=C\c1cc(O)c(O)c(/C=N/O)c1 | > 100 | > 100 | > 100 | > 100 | > 100 | > 100 | > 100 | > 100 | > 100 | > 100 | > 100 | 71.9 | > 100 | > 100 | > 100 | > 100 | > 100 | > 100 | > 100
13 | C[C@@H]1CCC2[C@@H](C)C(=O)O[C@@H]3C4C[C@@H]1[C@@]23OO[C@@]4(C)O (some centres not stated) | > 100 | > 100 | > 100 | > 100 | > 100 | 94 | > 100 | > 100 | > 100 | > 100 | > 100 | > 100 | > 100 | > 100 | > 100 | > 100 | > 100 | > 100 | > 100
